Assay results as given in ChEMBL document CHEMBL1201862, “PubChem BioAssay data set” (2004).
The source made the active and inactive calls.

Assays:
[1] = molecular target: Photoreceptor-specific nuclear receptor (Homo sapiens, UniProt Q9Y5X4); format: functional, cell-based;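 also: CHO-S cells with Gal4-NCOR and VP16-NR2E3 two-hybrid luciferase reporter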
[2] = HEK293T cell cytotoxicity, dose response, cytotoxicity control for HIV Vif inhibitor project, cherry-picks (AID 652208); format: functional, cell-based
[3] = Counterscreen for activators of the function of SWI/SNF related, matrix associated, actin dependent regulator of chromatin, subfamily a, member 2 (SMARCA2, BRM): Luminescence-based cell-based high throughput dose response assay to identify non-selective compounds using the VP16 reporter assay.; format: functional
INS1 = assay: beta cell apoptosis inhibitors, cytokine rescue, dose response, luminescence, retest (AID 449756); format: functional, cell-based; conditions: Rattus norvegicus;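 also: cell death triggered by IL-1 beta plus TNF-alpha plus IFN-gamma mixture; protective hits raise ATP signal compared with cytokine alone wells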
[4] = molecular target: SWI/SNF-related matrix-associated actin-dependent regulator of chromatin subfamily A member 2 (Homo sapiens, UniProt P51531); assay: Luminescence-based cell-based high throughput dose response assay to identify activators of the function of SWI/SNF related, matrix associated, actin dependent regulator of chromatin, subfamily a, member 2 (SMARCA2, BRM).; format: functional
[5] = Counterscreen for inhibitors of Trypanosoma brucei methionyl tRNA synthetase (MetRS): Luminescence-based cell-based high throughput dose response assay to identify compounds that are cytotoxic to Jurkat human T lymphocyte cells.; format: functional
[6] = molecular target: T1, Methionyl-tRNA synthetase, putative (Trypanosoma brucei brucei, UniProt Q38C91); format: functional, Trypanosoma brucei brucei strain 927/4 GUTat10.1
[7] = molecular target: T2, Heat shock factor protein 1 (Mus musculus, UniProt P38532); assay: HSF1 potentiators in luciferase reporter cells, confirmation, cell-based, NIH3T3, luminescence, dose retest (AID 435004); format: functional;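 also: stress induced by proteasome inhibitor MG132 added 30 min after compound; luciferase reporter driven by HSF1 response element in NIH3T3 cells; actives raise luminescence as potentiators of the MG132 stress response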
T2 sequence (P38532 whole entry): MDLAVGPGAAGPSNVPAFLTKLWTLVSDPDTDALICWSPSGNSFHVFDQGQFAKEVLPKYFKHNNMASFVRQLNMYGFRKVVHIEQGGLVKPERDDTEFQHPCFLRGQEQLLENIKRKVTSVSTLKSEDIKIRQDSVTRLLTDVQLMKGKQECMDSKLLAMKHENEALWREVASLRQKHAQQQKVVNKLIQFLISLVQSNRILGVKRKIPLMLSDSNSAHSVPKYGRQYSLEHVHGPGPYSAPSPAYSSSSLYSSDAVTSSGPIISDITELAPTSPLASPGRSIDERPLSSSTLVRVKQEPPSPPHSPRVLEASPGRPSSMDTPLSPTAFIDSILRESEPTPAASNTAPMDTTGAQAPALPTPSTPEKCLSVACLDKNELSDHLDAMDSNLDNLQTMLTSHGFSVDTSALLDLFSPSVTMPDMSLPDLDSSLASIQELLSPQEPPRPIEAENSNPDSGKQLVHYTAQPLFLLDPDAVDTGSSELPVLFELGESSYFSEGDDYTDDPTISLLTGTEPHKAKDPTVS

Cysteine protease ATG4B = molecular target: T3, Cysteine protease ATG4B (Homo sapiens, UniProt Q9Y4P1); format: functional;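 also: Fluorescence-based dose-response confirmation assay measuring inhibition of ATG4B activity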
T3 sequence (Q9Y4P1 whole entry): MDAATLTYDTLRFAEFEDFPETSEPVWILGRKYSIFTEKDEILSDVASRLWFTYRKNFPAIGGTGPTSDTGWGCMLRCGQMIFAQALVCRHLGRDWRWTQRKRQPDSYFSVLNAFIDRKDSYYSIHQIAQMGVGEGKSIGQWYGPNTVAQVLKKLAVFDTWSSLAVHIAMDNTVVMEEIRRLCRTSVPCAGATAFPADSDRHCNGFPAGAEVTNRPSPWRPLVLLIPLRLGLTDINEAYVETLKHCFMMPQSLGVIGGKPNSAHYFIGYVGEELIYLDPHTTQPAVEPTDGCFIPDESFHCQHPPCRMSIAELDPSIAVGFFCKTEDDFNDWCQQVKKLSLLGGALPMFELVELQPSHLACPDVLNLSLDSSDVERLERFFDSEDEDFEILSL

Streptokinase A = molecular target: T4, Streptokinase A (Streptococcus pyogenes serotype M1, UniProt P10520); assay: S. pyogenes streptokinase expression inhibitors, potency, dose response, plasminogen activation absorbance, OD405 (AID 1914); format: functional, Streptococcus pyogenes M1 GAS;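 also: secreted streptokinase activity via plasminogen activation per viability signal from cell pellet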
T4 sequence (P10520 whole entry): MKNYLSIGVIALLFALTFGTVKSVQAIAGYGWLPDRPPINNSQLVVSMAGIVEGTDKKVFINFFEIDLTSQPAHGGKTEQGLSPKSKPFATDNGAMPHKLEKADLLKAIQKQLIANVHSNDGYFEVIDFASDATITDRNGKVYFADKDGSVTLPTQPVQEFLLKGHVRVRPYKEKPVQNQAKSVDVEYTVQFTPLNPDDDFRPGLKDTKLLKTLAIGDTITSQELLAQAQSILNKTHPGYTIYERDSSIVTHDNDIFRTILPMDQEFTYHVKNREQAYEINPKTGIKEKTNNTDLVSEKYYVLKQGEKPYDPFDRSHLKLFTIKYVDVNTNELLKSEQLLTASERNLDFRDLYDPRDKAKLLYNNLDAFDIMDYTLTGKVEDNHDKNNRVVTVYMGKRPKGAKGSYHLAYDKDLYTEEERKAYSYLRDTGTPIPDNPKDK

[8] = tested on: Streptococcus sp. 'group A'; assay: growth inhibition of control SK(-) GAS strain, dose response, counter-screen for streptokinase expression inhibitor project, luminescence, kanamycin, BacTiterGlo, confirmation (AID 1900); format: functional, organism-based
[9] = molecular target: T1, Methionyl-tRNA synthetase, putative; format: functional, Trypanosoma brucei brucei strain 927/4 GUTat10.1; remark: listed apart in the source
Streptococcus = assay: Group A Streptococcus viability loss, dose response, counter-screen for streptokinase expression inhibitor project, luminescence, BacTiterGlo (AID 1915); format: functional, organism-based;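 also: potency for reduction of bacterial viability or growth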
Phospholipase A2 = Phospholipase A2 (Homo sapiens, UniProt P04054); format: functional;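 also: confirmatory dose-response counterscreen on phospholipase A2, testing hits that came from an ultra-high-throughput screen for ATG4B inhibitors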
[10] = molecular target: Botulinum neurotoxin type F (Clostridium botulinum, UniProt P30996); assay: High-throughput multiplex microsphere dose response for inhibitors of toxin protease, specifically Botulinum neurotoxin light chain F protease, compounds from Cherry Pick 02.; format: functional; conditions: read-out: EC50_MICROM
[11] = THP-1 cell cytotoxicity, dose response, cytotoxicity control for Vif-APOBEC3G degradation inhibitor project, THP-1 cells (AID 1117359); format: functional; conditions: Human immunodeficiency virus 1, THP-1
[12] = inhibitors of Vif binding to APOBEC3G peptide, primary screen, biochemical, TR-FRET, GST-Vif 1-94, biotin-A3G peptide, dose response retest (AID 1117319); format: functional;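 also: TR-FRET signal of purified GST-Vif binding a biotinylated A3G peptide; inhibitors lower the FRET signal by blocking Vif and A3G binding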
[13] = molecular target: Arf-GAP with SH3 domain, ANK repeat and PH domain-containing protein 1 (Homo sapiens, UniProt Q9ULH1); format: functional;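 also: biochemical fluorescence polarization dose–response screen measuring inhibition of ASAP1; ASAP1 GAP domain stimulating GTP hydrolysis by truncated human ARF1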
[14] = molecular target: T5, Small ubiquitin-related modifier 1 (Homo sapiens, UniProt P63165); assay: inhibitors of SUMO1 partner interactions, dose response, biochemical, FRET (AID 624383); format: functional; conditions: read-out: IC50_Mean
[15] = molecular target: ADP-ribosylation factor GTPase-activating protein 1 (Rattus norvegicus, UniProt Q62848); assay: Fluorescence polarization-based biochemical high throughput dose response screening assay to identify inhibitors of ADP-ribosylation factor GTPase activating protein 1 (ARFGAP1).; format: functional
[16] = molecular target: T5, Small ubiquitin-related modifier 1; assay: inhibitors of SUMO1 peptide binding, dose response, biochemical, fluorescence polarization, uHTS hits (AID 624382); format: functional; conditions: read-out: IC50_Mean
Mu-type opioid receptor = Mu-type opioid receptor (Homo sapiens, UniProt P35372); assay: (§1) Counterscreen for agonists of heterodimerization of the mu 1 (OPRM1) and delta 1 (OPRD1) opioid receptors: Luminescence-based cell-based high throughput dose response assay to identify agonists of OPRM1 homodimerization.; format: functional
[17] = Late-stage results from the probe development effort to identify activators of OPRM1 and OPRD1 heterodimer formation: luminescence-based cell-based dose response counterscreen assay to determine cytotoxicity of test compounds.; format: functional
[18] = molecular target: Delta-type opioid receptor (Homo sapiens, UniProt P41143); assay: as §1, with “of OPRD1” for “of OPRM1”, “homodimerization. [Related pubchem assays (depositor defined):AID504326, AID504355, AID504692, AID504904, AID504905]” for “homodimerization.”; format: functional
[19] = molecular target: 5-hydroxytryptamine receptor 5A (Homo sapiens, UniProt P47898); assay: Counterscreen for agonists of OPRM1-OPRD1 heterodimerization: luminescence-based cell-based high throughput dose response assay to identify agonists of 5-hydroxytryptamine (serotonin) 5A receptor (HTR5A). [Related pubchem assays (depositor defined):AID504326, AID504355, AID504692, AID504904, AID504905]; format: functional
[20] = molecular target: T6, Short transient receptor potential channel 4 (Mus musculus, UniProt Q9QUQ5); assay: mouse TRPC4 channel activators, dose response, cell-based, HEK293 TRPC4/mu-opioid, Fluo-4 calcium (AID 434937); format: functional
T6 sequence (Q9QUQ5 whole entry): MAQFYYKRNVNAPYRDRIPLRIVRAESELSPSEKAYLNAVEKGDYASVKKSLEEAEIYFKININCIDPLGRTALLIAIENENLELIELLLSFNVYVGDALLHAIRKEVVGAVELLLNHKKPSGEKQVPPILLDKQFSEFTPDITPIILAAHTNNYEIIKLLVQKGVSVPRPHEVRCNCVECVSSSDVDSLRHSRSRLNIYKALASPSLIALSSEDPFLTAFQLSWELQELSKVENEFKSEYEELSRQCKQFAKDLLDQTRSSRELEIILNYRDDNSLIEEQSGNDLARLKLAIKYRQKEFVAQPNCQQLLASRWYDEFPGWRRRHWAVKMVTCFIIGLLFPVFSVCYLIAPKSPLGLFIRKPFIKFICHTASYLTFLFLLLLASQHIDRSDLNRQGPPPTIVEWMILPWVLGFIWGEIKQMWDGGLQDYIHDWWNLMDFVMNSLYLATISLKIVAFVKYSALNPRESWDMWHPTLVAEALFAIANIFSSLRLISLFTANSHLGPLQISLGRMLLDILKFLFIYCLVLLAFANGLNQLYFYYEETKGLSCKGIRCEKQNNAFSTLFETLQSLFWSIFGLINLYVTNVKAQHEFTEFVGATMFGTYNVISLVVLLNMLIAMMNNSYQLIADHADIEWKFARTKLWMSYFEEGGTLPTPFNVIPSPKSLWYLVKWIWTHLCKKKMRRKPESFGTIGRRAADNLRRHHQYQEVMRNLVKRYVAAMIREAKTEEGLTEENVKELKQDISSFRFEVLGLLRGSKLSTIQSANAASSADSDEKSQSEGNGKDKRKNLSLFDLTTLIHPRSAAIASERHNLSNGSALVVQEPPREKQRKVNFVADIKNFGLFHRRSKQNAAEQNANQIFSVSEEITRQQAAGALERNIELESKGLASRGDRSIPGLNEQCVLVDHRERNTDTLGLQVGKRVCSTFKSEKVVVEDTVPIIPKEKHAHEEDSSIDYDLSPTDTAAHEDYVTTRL

Vero = assay: Vero cell toxicity, dose response, cytotoxicity control, plate reader, cherry-pick samples (AID 687020); format: functional, cell-based; conditions: Chlorocebus sabaeus
H9c2 = assay: cells; format: functional, cell-based; conditions: Rattus norvegicus, H9c2, Myocardium;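 also: confirmatory concentration-response retest of ultra-high-throughput screening hits for modulation of myocardial damage; cell death induced by hydrogen peroxide oxidative stress; compound pretreatment for 60 min then peroxide exposure for 2 h; potency is for protecting the cells against peroxide damage rather than for killing them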

T1 sequence (Q38C91 whole entry): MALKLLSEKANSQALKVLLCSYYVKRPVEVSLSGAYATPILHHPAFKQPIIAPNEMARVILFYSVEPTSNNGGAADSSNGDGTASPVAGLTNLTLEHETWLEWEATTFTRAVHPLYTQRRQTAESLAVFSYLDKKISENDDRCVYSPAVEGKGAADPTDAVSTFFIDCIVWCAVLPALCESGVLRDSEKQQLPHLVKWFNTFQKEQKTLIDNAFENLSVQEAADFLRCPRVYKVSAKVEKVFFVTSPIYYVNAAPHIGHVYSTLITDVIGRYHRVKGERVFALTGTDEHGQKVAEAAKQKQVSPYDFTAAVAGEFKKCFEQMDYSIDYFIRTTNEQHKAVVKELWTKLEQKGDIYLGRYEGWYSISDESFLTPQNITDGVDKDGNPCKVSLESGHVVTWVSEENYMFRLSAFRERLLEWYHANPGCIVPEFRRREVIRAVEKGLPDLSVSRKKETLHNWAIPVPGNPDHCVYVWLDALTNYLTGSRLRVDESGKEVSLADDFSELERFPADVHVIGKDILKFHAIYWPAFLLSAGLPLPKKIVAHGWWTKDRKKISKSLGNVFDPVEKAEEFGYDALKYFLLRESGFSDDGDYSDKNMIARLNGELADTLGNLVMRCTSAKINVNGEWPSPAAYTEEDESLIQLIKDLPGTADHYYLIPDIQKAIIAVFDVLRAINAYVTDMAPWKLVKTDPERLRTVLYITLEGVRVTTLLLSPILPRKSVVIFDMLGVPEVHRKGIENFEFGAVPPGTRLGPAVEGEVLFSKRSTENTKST
T5 sequence (P63165 whole entry): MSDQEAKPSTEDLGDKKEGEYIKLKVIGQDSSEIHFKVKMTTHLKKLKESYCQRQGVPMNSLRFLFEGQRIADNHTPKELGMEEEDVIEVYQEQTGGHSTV
Delta-type opioid receptor, sequence (P41143 whole entry): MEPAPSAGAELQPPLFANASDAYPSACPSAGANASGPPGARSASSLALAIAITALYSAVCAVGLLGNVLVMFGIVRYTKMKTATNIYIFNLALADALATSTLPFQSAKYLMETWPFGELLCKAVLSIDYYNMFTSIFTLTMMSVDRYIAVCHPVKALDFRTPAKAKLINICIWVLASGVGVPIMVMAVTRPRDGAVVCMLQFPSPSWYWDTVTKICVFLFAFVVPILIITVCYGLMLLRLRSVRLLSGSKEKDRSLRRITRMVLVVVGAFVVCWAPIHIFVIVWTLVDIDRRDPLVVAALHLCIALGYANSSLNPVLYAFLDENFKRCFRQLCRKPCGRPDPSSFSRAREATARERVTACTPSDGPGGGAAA
5-hydroxytryptamine receptor 5A, sequence (P47898 whole entry): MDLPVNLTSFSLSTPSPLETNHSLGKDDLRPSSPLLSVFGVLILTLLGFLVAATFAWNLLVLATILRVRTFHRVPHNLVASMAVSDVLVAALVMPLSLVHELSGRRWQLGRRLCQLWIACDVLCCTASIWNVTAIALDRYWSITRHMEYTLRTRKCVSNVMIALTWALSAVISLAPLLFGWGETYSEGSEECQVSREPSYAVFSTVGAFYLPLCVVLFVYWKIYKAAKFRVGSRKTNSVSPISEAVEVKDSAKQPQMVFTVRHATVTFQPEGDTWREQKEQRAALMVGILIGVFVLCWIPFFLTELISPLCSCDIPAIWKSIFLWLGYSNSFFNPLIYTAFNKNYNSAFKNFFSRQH
Mu-type opioid receptor, sequence (P35372 whole entry): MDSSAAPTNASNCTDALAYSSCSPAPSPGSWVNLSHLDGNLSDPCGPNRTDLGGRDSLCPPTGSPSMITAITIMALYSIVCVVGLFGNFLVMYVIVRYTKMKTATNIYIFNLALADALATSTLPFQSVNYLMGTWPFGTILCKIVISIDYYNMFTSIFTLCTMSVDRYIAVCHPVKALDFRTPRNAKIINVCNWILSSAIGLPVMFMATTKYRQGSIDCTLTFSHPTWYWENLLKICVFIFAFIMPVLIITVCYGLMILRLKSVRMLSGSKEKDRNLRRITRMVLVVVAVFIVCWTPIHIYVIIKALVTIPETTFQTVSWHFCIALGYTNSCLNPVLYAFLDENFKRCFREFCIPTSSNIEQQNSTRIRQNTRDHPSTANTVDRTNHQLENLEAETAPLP
Botulinum neurotoxin type F, sequence (P30996 1-436 limits assumed): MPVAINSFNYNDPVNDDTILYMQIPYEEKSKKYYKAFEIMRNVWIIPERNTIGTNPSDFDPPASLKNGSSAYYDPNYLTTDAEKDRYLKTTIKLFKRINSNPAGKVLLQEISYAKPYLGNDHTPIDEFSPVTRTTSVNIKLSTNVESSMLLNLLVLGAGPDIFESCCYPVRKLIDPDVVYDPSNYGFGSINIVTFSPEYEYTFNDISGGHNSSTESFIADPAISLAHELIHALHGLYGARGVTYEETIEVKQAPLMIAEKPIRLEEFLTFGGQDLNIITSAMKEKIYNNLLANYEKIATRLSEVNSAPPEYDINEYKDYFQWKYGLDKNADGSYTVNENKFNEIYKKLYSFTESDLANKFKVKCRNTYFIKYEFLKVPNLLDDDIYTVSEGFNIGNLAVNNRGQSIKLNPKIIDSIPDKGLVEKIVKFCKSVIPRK
SWI/SNF-related matrix-associated actin-dependent regulator of chromatin subfamily A member 2, sequence (P51531 whole entry): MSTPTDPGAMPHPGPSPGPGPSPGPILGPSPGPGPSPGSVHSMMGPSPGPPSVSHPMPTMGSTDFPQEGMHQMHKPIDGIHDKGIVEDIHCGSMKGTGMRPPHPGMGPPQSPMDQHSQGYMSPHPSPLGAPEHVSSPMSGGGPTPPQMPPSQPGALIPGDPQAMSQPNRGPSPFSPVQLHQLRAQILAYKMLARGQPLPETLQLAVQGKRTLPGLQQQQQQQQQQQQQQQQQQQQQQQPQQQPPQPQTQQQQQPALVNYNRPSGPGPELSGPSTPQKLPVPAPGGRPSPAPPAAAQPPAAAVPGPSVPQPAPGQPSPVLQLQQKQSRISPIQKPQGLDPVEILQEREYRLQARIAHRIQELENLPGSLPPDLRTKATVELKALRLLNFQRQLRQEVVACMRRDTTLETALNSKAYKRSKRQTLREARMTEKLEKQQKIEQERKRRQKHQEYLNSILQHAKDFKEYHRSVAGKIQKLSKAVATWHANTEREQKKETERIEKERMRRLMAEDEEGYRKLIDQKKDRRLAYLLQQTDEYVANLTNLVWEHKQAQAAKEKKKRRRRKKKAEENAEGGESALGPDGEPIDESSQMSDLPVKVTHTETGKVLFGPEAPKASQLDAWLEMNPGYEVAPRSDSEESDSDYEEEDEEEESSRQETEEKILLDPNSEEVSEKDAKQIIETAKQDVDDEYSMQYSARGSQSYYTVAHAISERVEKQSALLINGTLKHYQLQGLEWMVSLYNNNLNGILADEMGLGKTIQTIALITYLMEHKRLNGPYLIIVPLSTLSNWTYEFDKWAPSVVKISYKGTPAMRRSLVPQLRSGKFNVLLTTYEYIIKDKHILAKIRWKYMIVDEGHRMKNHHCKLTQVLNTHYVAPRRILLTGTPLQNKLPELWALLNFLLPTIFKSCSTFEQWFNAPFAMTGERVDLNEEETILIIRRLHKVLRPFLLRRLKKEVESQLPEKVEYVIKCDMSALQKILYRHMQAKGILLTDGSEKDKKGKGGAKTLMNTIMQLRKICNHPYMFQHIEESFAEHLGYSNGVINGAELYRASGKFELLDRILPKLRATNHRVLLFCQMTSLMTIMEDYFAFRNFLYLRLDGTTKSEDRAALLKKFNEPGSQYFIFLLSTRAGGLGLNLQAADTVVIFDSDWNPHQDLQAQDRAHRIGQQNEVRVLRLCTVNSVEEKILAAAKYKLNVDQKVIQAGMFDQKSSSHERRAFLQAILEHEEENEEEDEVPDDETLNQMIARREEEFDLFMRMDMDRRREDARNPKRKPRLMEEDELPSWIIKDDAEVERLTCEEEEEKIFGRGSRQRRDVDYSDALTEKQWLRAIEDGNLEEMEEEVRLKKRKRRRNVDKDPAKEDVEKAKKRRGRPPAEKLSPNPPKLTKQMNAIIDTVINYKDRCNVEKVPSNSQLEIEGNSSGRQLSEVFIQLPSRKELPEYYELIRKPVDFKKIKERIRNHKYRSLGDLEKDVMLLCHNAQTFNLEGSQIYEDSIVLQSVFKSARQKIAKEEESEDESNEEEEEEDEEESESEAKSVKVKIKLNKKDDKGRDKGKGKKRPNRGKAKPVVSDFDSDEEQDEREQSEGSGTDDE
Phospholipase A2, sequence (P04054 whole entry): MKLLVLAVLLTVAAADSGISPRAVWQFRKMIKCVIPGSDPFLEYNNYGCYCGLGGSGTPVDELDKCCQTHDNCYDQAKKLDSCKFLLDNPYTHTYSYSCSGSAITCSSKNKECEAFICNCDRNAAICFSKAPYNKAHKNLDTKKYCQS
Photoreceptor-specific nuclear receptor, sequence (Q9Y5X4 whole entry, the tested form may be a part): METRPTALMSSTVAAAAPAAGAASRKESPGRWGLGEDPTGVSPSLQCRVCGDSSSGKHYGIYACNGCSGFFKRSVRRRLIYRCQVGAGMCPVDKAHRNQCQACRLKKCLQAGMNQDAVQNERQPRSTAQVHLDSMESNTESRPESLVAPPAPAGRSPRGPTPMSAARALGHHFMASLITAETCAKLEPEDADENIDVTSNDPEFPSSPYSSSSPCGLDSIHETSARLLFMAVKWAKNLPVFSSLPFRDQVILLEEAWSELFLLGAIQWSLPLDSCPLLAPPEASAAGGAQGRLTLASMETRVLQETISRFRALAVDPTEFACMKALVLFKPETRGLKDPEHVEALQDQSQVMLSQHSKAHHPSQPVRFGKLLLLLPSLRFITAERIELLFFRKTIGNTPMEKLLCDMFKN

With `Cc1cnc(NC(=O)CN2CCN(c3ccccn3)CC2)s1` the IC50 [1] was 1.17 µM (active), the AC50 [2] was > 52 µM (inactive) and the EC50 [3] was > 91.2 µM (inactive). The AC50 (INS1) was 6.06 µM (active) and the EC50 [4] was > 91.2 µM (inactive).

In the case of `S=C(NCCSCc1ccc(Cl)c(Cl)c1)Nc1ccccc1`, the IC50 [5] is reported as 47.9 µM (inactive), the IC50 [6] is reported as 11.6 µM (inactive) and the EC50 [7] is reported as > 260 µM (inactive). The IC50 (Cysteine protease ATG4B) was 6.67 µM (active), the EC50 (Streptokinase A) was 14.4 µM (active) and the EC50 [8] was 11.2 µM (active). The IC50 [9] was 11.1 µM (inactive), the EC50 (Streptococcus) was > 150 µM (not active) and the IC50 (Phospholipase A2) was 3.24 µM (active).

With `Cc1cccc2c1NC1(CCCC1)CC2C` (stereo not drawn) the EC50 [10] was > 20 µM (inactive), the CC50 [11] was 24.6 µM (active) and the IC50 [12] was > 100 µM (active).

For `CC(=O)Nc1ccc(C(=O)Nc2nc(-c3cccnc3)cs2)cc1`, the IC50 [13] was 31.1 µM (inactive), the IC50 [14] was 12.1 µM (active) and the IC50 [15] was 36.6 µM (inactive). The IC50 [16] was > 66.6 µM (inactive).

In the case of `CCOC(=O)C1(CCc2ccccc2)CCN(Cc2ccc(NC(C)=O)cc2)CC1`, the EC50 (Mu-type opioid receptor) is reported as 24.3 µM (inactive), the CC50 [17] is reported as > 10 µM (inactive) and the EC50 [18] is reported as 4.5 µM (active). For the same molecule, the EC50 [19] was > 92.5 µM (inactive) and the EC50 [20] was 26.7 nM (active).

With `COc1ccc(N(CC(=O)NCCSc2ccccc2)S(=O)(=O)c2ccccc2)c(OC)c1` the AC50 (Vero) was 38.4 µM (active) and the IC50 (H9c2) was 10.8 µM (active).
